# Test results from patent US20050282911A1, “Memantine for the prevention or reduction of suicidality and for treatment of major depression associated with suicidality” (priority 2003, published 2005).
# Test system: patients with major depressive disorder (MDD)
# Test: Open-label, flexible dose, 12-week study of memantine in major depressive disorder (MEM-MD-09): efficacy
# Assay type: in vivo, human
# Set-up: CGI-I mean score: scale not given here
# Details: for CGI-I mean score / Mean Change from Baseline in CGI-S / Mean Change from Baseline in HAM-D / Mean Change from Baseline in MADRS: ITT Population; for Mean Change from Baseline in CGI-S: baseline 4.3; for Mean Change from Baseline in HAM-D: baseline 30.0; for Mean Change from Baseline in MADRS: baseline 31.9
# Source text: The present study was a single-center, open-label, flexible dose, 12-week study designed to provide a preliminary assessment of the efficacy and safety of memantine in patients with major depressive disorder (MDD). In order to assess the efficacy of treatment on depressive symptomatology, the primary efficacy assessment was the Montgomery Depression Rating Scale (MADRS). Secondary efficacy assessments included the Hamilton Depression Rating Scale (HAM-D), the Clinical Global Impressions—Severity Scale (CGI-S), the Clinical Global Impressions—Improvement Scale (CGI-I), the Patient Global Evaluation (PGE), and the Quality of Life Scale (QOL).
# Study Design. The study was designed as a single-center, open-label, flexible dose 12-week study. Memantine was to be administered at 20 mg/day (10 mg b.i.d.) (titrated over a 4 week period), and, if warranted, up-titrated to a maximum of 40 mg/day (20 mg b.i.d.) (titrated in increments of 10 mg/day after Week 4).
# Entrance Criteria. Criteria for enrollment were as follows: (i) male or female outpatients between 18 and 80 years of age at screening; (ii) diagnosis of MDD consistent with DSM-IV; (iii) Montgomery Asberg Depression Rating Scale (MADRS) score of 22 or greater; and CGI severity score of 4 or greater. None of the patients had attempted suicide or were diagnosed as being at risk for committing suicide.
# Endpoints. The primary endpoint was improvement according to Montgomery Asberg Depression Rating Scale (MADRS). Secondary endpoints were improvements according to the Hamilton Depression Rating Scale (HAM-D), the Clinical Global Impressions-Severity Scale (CGI-S), the Clinical Global Impressions-Improvement Scale (CGI-I), Patient Global Evaluation (PGE), and Quality of Life Scale (QOL).
# MADRS. MADRS is either self-administered (MADRS-S) or interviewer administered evaluation of symptoms of depression in adults. MADRS evaluates ten areas of depressive symptomatology: apparent sadness, reported sadness, inner tension, reduced sleep, reduced appetite, concentration difficulties, lassitude, inability to feel, pessimistic thoughts, and suicidal thoughts. Each area is rated on a seven-point scale (0-6).
# MADRS was administered to each of the study participants at baseline, and weeks 1, 2, 3, 4, 6, 8, 10 and 12.
# HAM-D. HAM-D criteria were assessed at weeks 1, 2, 4, 8 and 12. HAM-D is a 24-item scale that evaluates depressed mood, vegetative and cognitive symptoms of depression, and comorbid anxiety symptoms. It provides ratings on current DSM-IV symptoms of depression, with the exceptions of hypersomnia, increased appetite, and concentration/indecision. There are several ways of analyzing HAM-D. According to one analysis, the first 17-items are rated on either a 5-point (0-4) or a 3-point (0-2) scale. In general, the 5-point scale items use a rating of 0=absent; 1=doubtful to mild; 2=mild to moderate; 3=moderate to severe; 4=very severe. A rating of 4 is usually reserved for extreme symptoms. The 3-point scale items used a rating of 0=absent; 1=probable or mild; 2=definite. The second analysis uses the same scale to rate the first 21 items, and the third analysis uses the scale to rate all 24 items. All three analyses were used in the present study and used statistically in the results.
# Response to medication (i.e., memantine) was defined as a reduction in the HAM-D 24 score of 50%, while remission was defined as a reduction in the HAM-D total score to 7 or less.
# DSM-IV. DSM-IV diagnostic criteria were determined at week 1 and again at the end of the study. […]
smiles,measurement,setting,value
"CC12CC3CC(C)(C1)CC(N)(C3)C2.Cl [Memantine, 1-amino-3,5-dimethyladamantane hydrochloride]",HAM-D ECDEU combination (cognitive disturbance factor),12 week period,improved
same,shift in severity ranking (CGI-S),"12 week period, with the exception of one patient",improved to “mildly depressed” or to “not depressed”
same,"HAM-D item 8, MADRS item 6 and DSM-IV criterion “h” (concentration, cognitive disturbance)",12 week treatment period,improved
same,"reduction in MADRS and HAM-D (17-, 21-, and 24-question versions) at endpoint","LOCF analyses, endpoint",approximately 18 points
same,CGI-I mean score,"Week 1, LOCF",2.7
same,Mean Change from Baseline in CGI-S,"Week 1, LOCF",−0.5
same,Mean Change from Baseline in HAM-D,"Week 1, LOCF",−6.1
same,Mean Change from Baseline in MADRS,"Week 1, LOCF",−7.9
same,CGI-I mean score,"Week 1, OC",2.7
same,Mean Change from Baseline in CGI-S,"Week 1, OC",−0.7
same,Mean Change from Baseline in HAM-D,"Week 1, OC",−8.2
same,Mean Change from Baseline in MADRS,"Week 1, OC",−10.5
same,CGI-I mean score,"Week 2, LOCF",2.8
same,Mean Change from Baseline in CGI-S,"Week 2, LOCF",−0.6
same,Mean Change from Baseline in HAM-D,"Week 2, LOCF",−11.8
same,Mean Change from Baseline in MADRS,"Week 2, LOCF",−12.1
same,CGI-I mean score,"Week 2, OC",2.8
same,Mean Change from Baseline in CGI-S,"Week 2, OC",−0.6
same,Mean Change from Baseline in HAM-D,"Week 2, OC",−11.8
same,Mean Change from Baseline in MADRS,"Week 2, OC",−12.1
same,CGI-I mean score,"Week 3, LOCF",2.4
same,Mean Change from Baseline in CGI-S,"Week 3, LOCF",−0.9
same,Mean Change from Baseline in MADRS,"Week 3, LOCF",−14.3
same,CGI-I mean score,"Week 3, OC",2.3
same,Mean Change from Baseline in CGI-S,"Week 3, OC",−1.0
same,Mean Change from Baseline in MADRS,"Week 3, OC",−14.7
same,CGI-I mean score,"Week 4, LOCF",2.3
same,Mean Change from Baseline in CGI-S,"Week 4, LOCF",−1.3
same,Mean Change from Baseline in HAM-D,"Week 4, LOCF",−16.8
same,Mean Change from Baseline in MADRS,"Week 4, LOCF",−15.6
same,CGI-I mean score,"Week 4, OC",2.1
same,Mean Change from Baseline in CGI-S,"Week 4, OC",−1.4
same,Mean Change from Baseline in HAM-D,"Week 4, OC",−20.8
same,Mean Change from Baseline in MADRS,"Week 4, OC",−17.0
same,CGI-I mean score,"Week 6, LOCF",2.4
same,Mean Change from Baseline in CGI-S,"Week 6, LOCF",−1.3
same,Mean Change from Baseline in MADRS,"Week 6, LOCF",−15.0
same,CGI-I mean score,"Week 6, OC",2.4
same,Mean Change from Baseline in CGI-S,"Week 6, OC",−1.3
same,Mean Change from Baseline in MADRS,"Week 6, OC",−15.0
same,CGI-I mean score,"Week 8, LOCF",2.0
same,Mean Change from Baseline in CGI-S,"Week 8, LOCF",−1.5
same,Mean Change from Baseline in HAM-D,"Week 8, LOCF",−16.8
same,Mean Change from Baseline in MADRS,"Week 8, LOCF",−18.6
same,CGI-I mean score,"Week 8, OC",1.9
same,Mean Change from Baseline in CGI-S,"Week 8, OC",−1.6
same,Mean Change from Baseline in HAM-D,"Week 8, OC",−19.0
same,Mean Change from Baseline in MADRS,"Week 8, OC",−20.4
same,CGI-I mean score,"Week 10, LOCF",2.1
same,Mean Change from Baseline in CGI-S,"Week 10, LOCF",−1.8
same,Mean Change from Baseline in MADRS,"Week 10, LOCF",−18.5
same,CGI-I mean score,"Week 10, OC",2.3
same,Mean Change from Baseline in CGI-S,"Week 10, OC",−1.6
same,Mean Change from Baseline in MADRS,"Week 10, OC",−16.7
same,CGI-I mean score,"Week 12, LOCF",2.1
same,Mean Change from Baseline in CGI-S,"Week 12, LOCF",−1.5
same,Mean Change from Baseline in HAM-D,"Week 12, LOCF",−17.8
same,Mean Change from Baseline in MADRS,"Week 12, LOCF",−18.5
same,CGI-I mean score,"Week 12, OC",2.3
same,Mean Change from Baseline in CGI-S,"Week 12, OC",−1.3
same,Mean Change from Baseline in HAM-D,"Week 12, OC",−16.0
same,Mean Change from Baseline in MADRS,"Week 12, OC",−16.7
same,overall impression of improvement (CGI-I),after 12 weeks,overall impression of improvement as measured using CGI-I in all patients with the exception of one
same,DSM-IV checklist: degree of symptomology,"all DSM-IV categories, end of study",reduction in the degree of symptomology in all DSM-IV categories
same,improvement on the primary and all secondary efficacy variables,"baseline to Week 12, LOCF and OC approaches",Significant improvement
same,onset of therapeutic benefit in the treatment of MDD,"eight patients with MDD, first assessment",1 week
same,patients considered “Very Much Improved” or “Much Improved” as measured by the CGI-I,end of Week 8,6 of 7
same,"patients responded to treatment, as measured by the MADRS and the HAM-D","end of Week 8, responder defined as 50% improvement from baseline",5 of the 7
same,DSM-IV checklist: categories of appetite and agitation/retardation,end of study,complete remission of symptoms in all patients
same,overall therapeutic response compared to citalopram and escitalopram,"memantine 20-40 mg/day, comparison with prior study SCT-MD-01",larger magnitude and faster onset of overall therapeutic response
same,"appetite items HAM-D 12, MADRS item 5 and DSM-IV item “c”",overall scores versus baseline,decrease from baseline
same,"HAM-D items 1, 2, 3 and 7",specific items chosen for analysis,positive change
same,score of item 3 of HAM-D (suicide),throughout visit 8,steady improvement
same,patients meeting criteria as CGI-I responders,week 12,62.5%
same,mean change from baseline to endpoint on the HAM-D,"week 12, printed without sign",about 17.8
same,mean change from baseline to endpoint on the MADRS,"week 12, printed without sign",about 18.5
same,"HAM-D item combinations for melancholy, anxiety, psychomotor retardation and insomnia",week 12 from baseline,improvement
